Measurements taken from US7351744B2, “Naphthalene derivatives as termite repellents and toxicants” (Board of Supervisors of Louisiana State University and …, priority 2003, dated 2008).

Tests used:
Format in all cases: in vivo, Coptotermes formosanus
[1] = test system: C. formosanus workers and soldiers; test: Treated filter paper as the sole food source; conditions: for Percent survival: colonies C and WB combined
Method: (§1) To assay the effect of 2′-acetonaphthone on termites when added to a sole food source, acute and cumulative toxicities of 2′-acetonaphthone-treated filter paper (Whatman #2) and balsa wood (Ochroma lagopus Swartz) slices (2.3 cm×4.0 cm) were evaluated. Seven concentrations (0, 1, 10, 50, 100, 500, and 1000 mg/l) were prepared in 100 ml ethanol. Six filter papers and six wood slices were soaked in each concentration for 4 h; control filter papers and wood slices were soaked only in ethanol. After treatment, the food sources were kept overnight at ambient conditions for solvent evaporation. Eighty-four plastic containers (5.5 cm diameter×3.7 cm height) were provided with 22 g of wetted sand (20 g sand (fine blasting sand #4, Cement Products Inc., Baton Rouge, La.) mixed with 2 ml DDH2O). Then either a filter paper or a wood slice was separately placed to fit on the surface of the wetted sand and wetted with DDH2O (250 μl). Into each container, fifty workers and 20 soldiers were placed on the surface of the filter paper or wood slice. For each concentration and food sourse, three replicates received termites from colony C, and three replicates received termites from colony WB. The containers were covered and incubated for 10 days at 27.4° C. and 70% RH. Containers were monitored everytwo days to ensure suitable moisture. On days 1, 5 and 10, the number of living workers and soldiers were counted. An average percent survival was calculated for each treatment. (See Tables 2 and 3).

[2] = test system: C. formosanus workers and soldiers; test: Treated wood slices as sole food source; conditions: colonies C and WB combined
Method: as §1

[3] = test system: C. formosanus workers; test: Treated sand when untreated sand is an alternative; conditions: for Survival (mean % ± SE) day 12: Colony WB; for Survival (mean % ± SE) day 12 / Survival (% ± SE) day 12: treated and untreated sand; for Survival (% ± SE) day 12: Colony E
Method: To further test the repellency of 2′-acetonaphthone, the three-chambered transparent plastic containers described in Example 5 were used. Sand was treated, allowed to dry from the solvent, and wetted with DDH2O as described in Example 5. Treated sand was placed in one of the side chambers, and the other side chamber received an equal amount of untreated sand. The concentrations of 2′-acetonaphthone used were 4.16, 8.33, 16.67, 33.33 and 66.67 mg/kg sand. Each concentration and the control had five replicate containers. Weighed balsa wood slices (0.159 cm×3.5 cm×6.0 cm each) were placed on the surface of both treated and untreated sand, and were wetted with 1 ml of DDH2O. Termites (200 workers and 20 soldiers) from colony WB were released in the middle chamber. On days 2, 3, 4 and 7, the bottom of each container was scanned, and tunnel areas measured as above. On day 12, the number of living termites in each container was recorded. The wood slices were then cleaned, dried and re-weighed to calculate food consumption.
The above experiment was repeated with new concentrations of 2′-acetonaphthone: 8.75, 17.5, 35, 70 and 140 mg/kg sand. Termites from colony E were tested, and the food source was changed to filter paper. Tunnels were scanned and measured on days 2, 5, 8 and 12. The data were analyzed as described in Example 5, and paired t-tests were used to compare tunneling and feeding activities between treated and untreated sides.

CC(=O)c1ccc2ccccc2c1 [2′-acetonaphthone]
Percent survival ([1]; filter paper 1 mg/l, Day 1, Soldier): 84.17 ± 9.26 a %
Percent survival ([1]; filter paper 1 mg/l, Day 1, Worker): 87.67 ± 5.83 a %
Percent survival ([1]; filter paper 1 mg/l, Day 5, Soldier): 58.33 ± 10.14 a %
Percent survival ([1]; filter paper 1 mg/l, Day 5, Worker): 73.0 ± 8.24 a %
Percent survival ([1]; filter paper 1 mg/l, Day 10, Soldier): 60.83 ± 13.07 a %
Percent survival ([1]; filter paper 1 mg/l, Day 10, Worker): 55.67 ± 8.98 a %
Percent survival ([1]; filter paper 10 mg/l, Day 1, Soldier): 80.0 ± 9.49 a %
Percent survival ([1]; filter paper 10 mg/l, Day 1, Worker): 84.0 ± 4.95 a %
Percent survival ([1]; filter paper 10 mg/l, Day 5, Soldier): 56.67 ± 12.49 a %
Percent survival ([1]; filter paper 10 mg/l, Day 5, Worker): 66.67 ± 9.71 ab %
Percent survival ([1]; filter paper 10 mg/l, Day 10, Soldier): 50.0 ± 12.91 a %
Percent survival ([1]; filter paper 10 mg/l, Day 10, Worker): 53.67 ± 12.92 a %
Percent survival ([1]; filter paper 50 mg/l, Day 1, Soldier): 72.50 ± 11.46 a %
Percent survival ([1]; filter paper 50 mg/l, Day 1, Worker): 80.33 ± 9.76 a %
Percent survival ([1]; filter paper 50 mg/l, Day 5, Soldier): 42.50 ± 9.56 a %
Percent survival ([1]; filter paper 50 mg/l, Day 5, Worker): 68.33 ± 11.56 ab %
Percent survival ([1]; filter paper 50 mg/l, Day 10, Soldier): 35.83 ± 8.41 a %
Percent survival ([1]; filter paper 50 mg/l, Day 10, Worker): 55.0 ± 12.07 a %
Percent survival ([1]; filter paper 100 mg/l, Day 1, Soldier): 73.33 ± 5.87 a %
Percent survival ([1]; filter paper 100 mg/l, Day 1, Worker): 80.0 ± 6.68 a %
Percent survival ([1]; filter paper 100 mg/l, Day 5, Soldier): 33.33 ± 11.53 a %
Percent survival ([1]; filter paper 100 mg/l, Day 5, Worker): 48.33 ± 10.33 b %
Percent survival ([1]; filter paper 100 mg/l, Day 10, Soldier): 17.50 ± 5.74 b %
Percent survival ([1]; filter paper 100 mg/l, Day 10, Worker): 40.67 ± 9.98 a %
Percent survival ([1]; filter paper 500 mg/l, Day 1, Soldier): 14.17 ± 5.23 b %
Percent survival ([1]; filter paper 500 mg/l, Day 1, Worker): 18.33 ± 6.60 b %
Percent survival ([1]; filter paper 500 mg/l, Day 5, Soldier): 0.0 ± 0.0 b %
Percent survival ([1]; filter paper 500 mg/l, Day 5, Worker): 0.0 ± 0.0 c %
Percent survival ([1]; filter paper 500 mg/l, Day 10, Soldier): 0.0 ± 0.0 c %
Percent survival ([1]; filter paper 500 mg/l, Day 10, Worker): 0.0 ± 0.0 b %
Percent survival ([1]; filter paper 1000 mg/l, Day 1, Soldier): 1.67 ± 1.67 b %
Percent survival ([1]; filter paper 1000 mg/l, Day 1, Worker): 6.67 ± 6.67 b %
Percent survival ([1]; filter paper 1000 mg/l, Day 5, Soldier): 0.0 ± 0.0 b %
Percent survival ([1]; filter paper 1000 mg/l, Day 5, Worker): 0.0 ± 0.0 c %
Percent survival ([1]; filter paper 1000 mg/l, Day 10, Soldier): 0.0 ± 0.0 c %
Percent survival ([1]; filter paper 1000 mg/l, Day 10, Worker): 0.0 ± 0.0 b %
concentration acutely toxic when applied to a sole food source ([1]; sole food source): 0.1 % (wt/v)
concentration at which termites showed decreased survival ([1]; sole food source impregnated (filter paper or wood slice)): 1000 mg/L
Percent survival ([2]; wood slices 1 mg/l, Day 1, Soldier): 93.33 ± 1.67 a %
Percent survival ([2]; wood slices 1 mg/l, Day 1, Worker): 85.0 ± 5.29 a %
Percent survival ([2]; wood slices 1 mg/l, Day 5, Soldier): 60.0 ± 13.54 a %
Percent survival ([2]; wood slices 1 mg/l, Day 5, Worker): 55.33 ± 12.87 a %
Percent survival ([2]; wood slices 1 mg/l, Day 10, Soldier): 47.50 ± 11.61 a %
Percent survival ([2]; wood slices 1 mg/l, Day 10, Worker): 52.67 ± 12.55 a %
Percent survival ([2]; wood slices 10 mg/l, Day 1, Soldier): 86.67 ± 4.41 a %
Percent survival ([2]; wood slices 10 mg/l, Day 1, Worker): 83.33 ± 5.03 a %
Percent survival ([2]; wood slices 10 mg/l, Day 5, Soldier): 54.17 ± 11.14 a %
Percent survival ([2]; wood slices 10 mg/l, Day 5, Worker): 63.67 ± 11.13 a %
Percent survival ([2]; wood slices 10 mg/l, Day 10, Soldier): 46.67 ± 12.36 a %
Percent survival ([2]; wood slices 10 mg/l, Day 10, Worker): 50.67 ± 8.79 a %
Percent survival ([2]; wood slices 50 mg/l, Day 1, Soldier): 85.0 ± 5.0 a %
Percent survival ([2]; wood slices 50 mg/l, Day 1, Worker): 86.67 ± 5.26 a %
Percent survival ([2]; wood slices 50 mg/l, Day 5, Soldier): 48.33 ± 10.38 a %
Percent survival ([2]; wood slices 50 mg/l, Day 5, Worker): 65.0 ± 13.51 a %
Percent survival ([2]; wood slices 50 mg/l, Day 10, Soldier): 39.17 ± 8.41 a %
Percent survival ([2]; wood slices 50 mg/l, Day 10, Worker): 49.67 ± 10.23 a %
Percent survival ([2]; wood slices 100 mg/l, Day 1, Soldier): 90.0 ± 2.89 a %
Percent survival ([2]; wood slices 100 mg/l, Day 1, Worker): 88.67 ± 3.33 a %
Percent survival ([2]; wood slices 100 mg/l, Day 5, Soldier): 55.83 ± 11.94 a %
Percent survival ([2]; wood slices 100 mg/l, Day 5, Worker): 56.67 ± 12.15 a %
Percent survival ([2]; wood slices 100 mg/l, Day 10, Soldier): 45.0 ± 9.58 a %
Percent survival ([2]; wood slices 100 mg/l, Day 10, Worker): 47.67 ± 10.97 a %
Percent survival ([2]; wood slices 500 mg/l, Day 1, Soldier): 80.83 ± 10.44 a %
Percent survival ([2]; wood slices 500 mg/l, Day 1, Worker): 84.67 ± 2.41 a %
Percent survival ([2]; wood slices 500 mg/l, Day 5, Soldier): 17.50 ± 7.61 b %
Percent survival ([2]; wood slices 500 mg/l, Day 5, Worker): 54.33 ± 8.01 a %
Percent survival ([2]; wood slices 500 mg/l, Day 10, Soldier): 4.17 ± 2.38 b %
Percent survival ([2]; wood slices 500 mg/l, Day 10, Worker): 30.67 ± 9.18 a %
Percent survival ([2]; wood slices 1000 mg/l, Day 1, Soldier): 84.17 ± 7.24 a %
Percent survival ([2]; wood slices 1000 mg/l, Day 1, Worker): 86.67 ± 3.53 a %
Percent survival ([2]; wood slices 1000 mg/l, Day 5, Soldier): 2.50 ± 2.49 b %
Percent survival ([2]; wood slices 1000 mg/l, Day 5, Worker): 13.0 ± 9.85 b %
Percent survival ([2]; wood slices 1000 mg/l, Day 10, Soldier): 0.0 ± 0.0 b %
Percent survival ([2]; wood slices 1000 mg/l, Day 10, Worker): 5.67 ± 4.27 b %
Survival (mean % ± SE) day 12 ([3]; 4.16 mg/kg): 48.75 ± 2.78 ab %
Survival (mean % ± SE) day 12 ([3]; 8.33 mg/kg): 36.00 ± 4.76 bc %
Survival (% ± SE) day 12 ([3]; 8.75 mg/kg): 61.60 ± 2.79 abc %
Survival (mean % ± SE) day 12 ([3]; 16.67 mg/kg): 35.25 ± 3.47 bc %
Survival (% ± SE) day 12 ([3]; 17.5 mg/kg): 67.20 ± 1.36 ab %
Survival (mean % ± SE) day 12 ([3]; 33.33 mg/kg): 17.33 ± 7.22 c %
Survival (% ± SE) day 12 ([3]; 35.0 mg/kg): 59.0 ± 7.72 bc %
Survival (mean % ± SE) day 12 ([3]; 66.67 mg/kg): 24.25 ± 11.99 c %
Survival (% ± SE) day 12 ([3]; 70.0 mg/kg): 53.0 ± 2.34 c %
Survival (% ± SE) day 12 ([3]; 140.0 mg/kg): 51.60 ± 3.97 c %
concentration with significantly reduced survival after 12 days ([3]; colony E): ≥ 35.0 mg/kg sand
concentration significantly reducing overall tunneling (treated plus untreated sand) ([3]; colony E, 12 days): ≥ 35.0 mg/kg
concentration with significant reduction in consumption of filter paper on treated sand ([3]; colony E, 12 days): ≥ 8.75 mg/kg
concentration with significantly less total food consumption ([3]; colony E, only this treatment): 140 mg/kg
concentration with significant reduction in tunneling activity in treated sand ([3]; colony E, up to 12 days): ≥ 17.5 mg/kg
concentration with significantly reduced survival on day 12 ([3]; colony WB): ≥ 8.33 mg/kg
concentration with significantly reduced consumption of wood slices on treated sand ([3]; colony WB, 12 days): ≥ 8.33 mg/kg
concentration with significant difference in tunneling activity between untreated and treated sand ([3]; colony WB, days 2, 3, 4, 7): ≥ 16.67 mg/kg sand
